Source: article PMC11219860, “A chemogenetic approach for dopamine imaging with tunable sensitivity” (Nature Communications, 2024)

Experiments:
hM4Di in VTA DA neurons = biological target: T1, hM4Di in VTA DA neurons (Homo sapiens, UniProt P08173, A203G/Y113C); assay: Chemogenetic inhibition of VTA DA neurons with NAc dLight1.3b photometry; type: in vivo, mouse; details: J60 0.2 or 1 mg/kg, 10 minutes after DETQ
T1 construct: mCherry; expressed in transfected cells; host or cells: VTA dopamine neurons of DAT-IRES-cre mice, Cre-dependent AAV5
Experimental: Fiber photometry combined with optogenetics was conducted using a RZ10X LUX-I/O Processor with integrated LEDs (Tucker-Davis Technologies) combined with a filter/mirror minicube set (FMC6_IE(400-410)_E1(467-497)_F1(507-554)_E2(566-586)_F2(600-680)_S) (Doric Lenses). […] Low-autofluorescence patch cords (400 µm/0.57 NA, Doric) were attached to the optic fibers (400 µm/0.66 NA, Doric) on the mouse’s head to collect fluorescence emissions. Signals were filtered through 500–540 nm GFP emission filters coupled to a photodetector on the RZ10X. […] Data were sampled at 1017.3 Hz. […] DA release was measured with fiber photometry. […] After each injection, NAc DA axons were optically (opto) activated across 3 trials (2 s, 20 Hz, 20-ms pulses) every 5 min and DA released measured with fiber photometry. […] After each injection, NAc DA axons were optically (opto) inhibited (10 s, continuous trials) every 3 min (8 trials/condition) and DA released measured with fiber photometry. […] DA release was measured with fiber photometry.
For long-term recordings during optogenetic stimulation or chemogenetic inhibition linear fit was calculated across the entire recording or across the vehicle epoch; for event-related experiments fit was performed on fluorescent data obtained in the −60 to +60 s around opto events or −5 to −1 s around behavioral events. […]

[1] = ref Svensson et al 2019; Meltzer et al., 2019; Rajagopal et al., 2024; cited from earlier work
NAc DRD1-MSNs = assay: Footshock-induced NAc DRD1-MSN activity (jGCaMP8m photometry); details: DETQ 10 mg/kg; SCH-23390 0.1 mg/kg i.p.
Experimental: Cue-reward paradigm (NAc recordings) was carried out in an operant chamber within a sound-attenuating box with low red light illumination (30 Lux). […] During the next session mice were trained to initiate reward delivery via licking. […] During expert sessions CS-US pairings were repeated 20 times per session ( ~ 30 min for each session). Mice underwent a total of 12 sessions for cue-reward learning. 10 minutes before each session drugs were injected i.p. […] The rewards were delivered from 10 to 40 min post vehicle or DETQ injection. Chambers and lick ports were sanitized with ethanol between mice. For all sessions, lick data and photometry recordings were simultaneously obtained; licking behaviour was detected by a capacity-based sensor. Latency to reward-anticipatory licking was calculated as the time between the CS and lick onset. The lick proportion was calculated as the percent time mice spent licking during CS presentation divided by the percent time mice spent licking during the rest of the session (without CS). […] Fiber photometry recordings were analyzed using custom-written Matlab scripts. […] Change in fluorescence, ΔF/F0 (%), was defined as (F-F0)/F0 x 100, where F represents the fluorescent signal (465-nm) at each time point. F0 was calculated by applying a least-squares linear fit (polyfit) to the 405-nm signal to align with the 465-nm signal. […]

AlloLite-ctr = assay: In vivo photometry of AlloLite-ctr in NAc; parameters: species or system mouse; details: cocaine 20 mg/kg
Experimental: Fiber photometry combined with optogenetics was conducted using a RZ10X LUX-I/O Processor with integrated LEDs (Tucker-Davis Technologies) combined with a filter/mirror minicube set (FMC6_IE(400-410)_E1(467-497)_F1(507-554)_E2(566-586)_F2(600-680)_S) (Doric Lenses). […] Low-autofluorescence patch cords (400 µm/0.57 NA, Doric) were attached to the optic fibers (400 µm/0.66 NA, Doric) on the mouse’s head to collect fluorescence emissions. Signals were filtered through 500–540 nm GFP emission filters coupled to a photodetector on the RZ10X. […] Data were sampled at 1017.3 Hz. […] For optogenetic stimulation, a 635 nm LED was passed through the 580–680 nm minicube F2 port and reached the mouse through the same unique optic fiber; the LED was driven at 1 to 3 mW. To determine the ‘temporal window for stable imaging’ in the PFC using dLight1.3b recordings, DAT^IREScre mice expressing ChrimsonR in VTA DA axons and dLight1.3b in the PFC were injected i.p. with vehicle at 0 min, followed by DETQ (10 mg/kg) 25 min later. […] DA release was measured with fiber photometry. […] After each injection, NAc DA axons were optically (opto) activated across 3 trials (2 s, 20 Hz, 20-ms pulses) every 5 min and DA released measured with fiber photometry. […] After each injection, NAc DA axons were optically (opto) inhibited (10 s, continuous trials) every 3 min (8 trials/condition) and DA released measured with fiber photometry. […] DA release was measured with fiber photometry.
For long-term recordings during optogenetic stimulation or chemogenetic inhibition linear fit was calculated across the entire recording or across the vehicle epoch; for event-related experiments fit was performed on fluorescent data obtained in the −60 to +60 s around opto events or −5 to −1 s around behavioral events. […] DA event-related responses were quantified by computing the value at the transient’s peak value and the AUC in the 0 to 10 s or 0 to 60 s period post-event onset. […]

dLight1.3b = assay: In vivo photometry of optogenetically-evoked DA release in PFC; parameters: species or system mouse; details: cocaine 20 mg/kg after DETQ 10 mg/kg
Experimental: Fiber photometry combined with optogenetics was conducted using a RZ10X LUX-I/O Processor with integrated LEDs (Tucker-Davis Technologies) combined with a filter/mirror minicube set (FMC6_IE(400-410)_E1(467-497)_F1(507-554)_E2(566-586)_F2(600-680)_S) (Doric Lenses). […] Low-autofluorescence patch cords (400 µm/0.57 NA, Doric) were attached to the optic fibers (400 µm/0.66 NA, Doric) on the mouse’s head to collect fluorescence emissions. Signals were filtered through 500–540 nm GFP emission filters coupled to a photodetector on the RZ10X. […] Data were sampled at 1017.3 Hz. […] For optogenetic stimulation, a 635 nm LED was passed through the 580–680 nm minicube F2 port and reached the mouse through the same unique optic fiber; the LED was driven at 1 to 3 mW. To determine the ‘temporal window for stable imaging’ in the PFC using dLight1.3b recordings, DAT^IREScre mice expressing ChrimsonR in VTA DA axons and dLight1.3b in the PFC were injected i.p. with vehicle at 0 min, followed by DETQ (10 mg/kg) 25 min later. After each injection, PFC DA axons were optically (opto) activated across 5 trials (2 s, 20 Hz, 20-ms pulses) for the vehicle (20 min) and […] for DETQ (1h05 min) every 5 min. DA release was measured with fiber photometry. In another session, the same mice were injected with Veh, then DETQ (10 mg/kg) 20 min later, then cocaine (20 mg/kg) 25 min later, and the same optogenetic protocol was applied (2 s, 20 Hz, 20-ms pulses every 5 min). For optogenetic validation of AlloLite-ctr in the NAc, DAT^IREScre mice expressing ChrimsonR in VTA DA axons were injected i.p. with vehicle (Day 1) or DETQ (10 mg/kg) (Day 8) at 0 min, followed by cocaine (20 mg/kg) 20 min later. After each injection, NAc DA axons were optically (opto) activated across 3 trials (2 s, 20 Hz, 20-ms pulses) every 5 min and DA released measured with fiber photometry. […] After each injection, NAc DA axons were optically (opto) inhibited (10 s, continuous trials) every 3 min (8 trials/condition) and DA released measured with fiber photometry. […] DA release was measured with fiber photometry.
For long-term recordings during optogenetic stimulation or chemogenetic inhibition linear fit was calculated across the entire recording or across the vehicle epoch; for event-related experiments fit was performed on fluorescent data obtained in the −60 to +60 s around opto events or −5 to −1 s around behavioral events. […] DA event-related responses were quantified by computing the value at the transient’s peak value and the AUC in the 0 to 10 s or 0 to 60 s period post-event onset. […] The maximal peak value of Veh-normalized ΔF/F0 after opto-onset was plotted over time and the plateau of maximal response was determined by averaging peak opto responses 5, 10, 15 and 20 min post-DETQ. […]

Open field behavior = type: in vivo, mouse; details: untethered mice, 45 min; DETQ 3, 10, 30 mg/kg i.p.; cocaine 20 mg/kg
Experimental: For combined locomotion/photometry experiments in the open field (OF) in tethered mice, a 50 × 50 cm arena was used. Fiber photometry was conducted using a Doric photometry rig combined with a filter/mirror minicube set (Doric Lenses), as above. […] Data were sampled at 122 Hz. […] Mice were habituated to the chamber for 3 consecutive days (30 minutes per day). On experimental days, locomotor activity was video recorded and synchronized with fiber photometry signal recording. The baseline DA signal was recorded for 20 minutes, then the mouse received i.p. injection of vehicle or DETQ (10 mg/kg) in interleaved sessions. Following injection, the DA signal was recorded for an additional 90 minutes. The OF chamber was cleaned with ethanol and water between mice. Recording sessions were repeated at 48 hours intervals. Mouse behavior as well as photometry signals were analyzed with a custom-written MATLAB script. Mouse locomotion was computed using the body center point of the animal. The center zone of the arena was defined automatically during behavior data analysis as the 25 × 25 cm square with the central point aligned to the center of the open field. The distance moved and time spent in the center zone were quantified in 10 minutes time bins and as the total during the 90 minutes after ip injections. To test the dose-dependent effects of DETQ on locomotion in untethered mice, mice were injected i.p. with vehicle, DETQ (3, 10 or 30 mg/kg) or cocaine (20 mg/kg) while their locomotor activity was recorded in an OF arena (60 x 60 cm) for 45 min. Videos were recorded with a Logitech C270 camera and analyzed with DeepLabCut (version 2.1.8.2)[84] on an existing open field network. Representative traces were generated with the Anymaze (v7.2) software (Stoelting Co.).

[2] = biological target: T2, mouse DA transporter (DAT) (Mus musculus, UniProt Q61327); assay: Fast-scan cyclic voltammetry of DA release in striatal slices; details: bath application: DETQ 200 nM; cocaine 5 µM
T2 construct: Lack of DETQ effect on the endogenous DA transporter; from tissue; host or cells: mouse striatal brain slices
Experimental: Striatal DA release was measured using fast-scan cyclic voltammetry (FSCV) with a carbon fiber electrode (CFE; diameter 7 µm, length 50–100 µm) positioned approximately 100 µm below the surface of the slice. The CFE was scanned across a triangular waveform (−0.4 to +1.3 V, 400 V/s) at 10 Hz, and DA release was evoked by single-pulse electrical stimulation (30 µA, 0.5 ms) with an inter-stimulus interval of 180 s. DA release was evoked in the presence of DHBE (1 µM) to block nicotinic acetylcholine receptors. Peak background-subtracted DA oxidation current was measured at +0.6 V, and drugs were washed on after establishing a stable baseline.

T2 sequence (Q61327 whole entry): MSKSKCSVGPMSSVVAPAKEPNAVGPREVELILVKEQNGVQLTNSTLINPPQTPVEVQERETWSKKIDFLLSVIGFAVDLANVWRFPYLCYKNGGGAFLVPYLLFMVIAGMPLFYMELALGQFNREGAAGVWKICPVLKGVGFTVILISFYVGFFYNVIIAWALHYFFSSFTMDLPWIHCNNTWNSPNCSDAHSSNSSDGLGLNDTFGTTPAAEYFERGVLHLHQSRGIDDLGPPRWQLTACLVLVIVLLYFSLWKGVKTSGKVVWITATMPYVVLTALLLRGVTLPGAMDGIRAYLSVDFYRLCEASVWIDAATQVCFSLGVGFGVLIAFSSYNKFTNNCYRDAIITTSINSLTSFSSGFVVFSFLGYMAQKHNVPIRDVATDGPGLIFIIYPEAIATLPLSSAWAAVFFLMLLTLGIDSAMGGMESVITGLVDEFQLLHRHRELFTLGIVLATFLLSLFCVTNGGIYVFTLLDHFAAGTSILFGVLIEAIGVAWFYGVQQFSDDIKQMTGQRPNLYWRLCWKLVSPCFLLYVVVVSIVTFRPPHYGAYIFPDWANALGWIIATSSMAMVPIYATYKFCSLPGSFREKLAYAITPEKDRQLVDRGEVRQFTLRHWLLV
T1 sequence (P08173 whole entry Y113C/A203G): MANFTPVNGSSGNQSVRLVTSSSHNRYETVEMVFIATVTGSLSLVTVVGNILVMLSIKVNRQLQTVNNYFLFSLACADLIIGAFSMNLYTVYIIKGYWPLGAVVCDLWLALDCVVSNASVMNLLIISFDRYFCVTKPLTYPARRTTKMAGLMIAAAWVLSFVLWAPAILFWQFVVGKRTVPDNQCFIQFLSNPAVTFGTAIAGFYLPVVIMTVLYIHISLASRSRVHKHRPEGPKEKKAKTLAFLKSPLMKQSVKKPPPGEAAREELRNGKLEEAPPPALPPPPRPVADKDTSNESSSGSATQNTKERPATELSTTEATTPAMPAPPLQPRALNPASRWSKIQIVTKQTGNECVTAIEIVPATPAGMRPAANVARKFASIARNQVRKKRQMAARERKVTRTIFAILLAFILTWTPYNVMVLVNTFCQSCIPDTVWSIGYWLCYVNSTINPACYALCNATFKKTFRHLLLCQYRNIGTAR

Structure (SMILES): CCN1CCN(C2=Nc3cc(Cl)ccc3Nc3c(F)cccc32)CC1 [J60]
- step-like increase in dLight1.3b baseline signal observed with DETQ (hM4Di in VTA DA neurons): dose-dependently decreased

Structure (SMILES): CN1CCc2cc(Cl)c(O)cc2[C@@H](c2ccccc2)C1 [SCH-23390]
- behavioral effect of DETQ in hD1 mice [1]: blocked
- footshock-induced activity in NAc DRD1-MSNs (NAc DRD1-MSNs): reduces

Structure (SMILES): COC(=O)[C@H]1[C@@H](OC(=O)c2ccccc2)C[C@@H]2CC[C@H]1N2C [cocaine]
- decay time of opto-evoked DA peaks (AlloLite-ctr): increased decay time
- baseline fluorescence of the sensor after DETQ (dLight1.3b): further boosted
- locomotion in open field (Open field behavior): increase
- decay constant (tau) of DA signals [2]: slowed the decay
- peak DA release [2]: significantly increased
